Here are results for nine molecules from patent US7186530B1, “Protein associated with cell stress response” (Chiron Corporation, priority 2000, dated 2007).

Assay [1] concerns p46 hyperphosphorylation. The assay is described as follows: p46 hyperphosphorylation induced by stress-inducing agents, Western blot. Format: cell-based, human. The conditions noted are these: for hyperphosphorylation of p46 (induction): 45 minutes. As to the method:
FIG. 4. […] (A) IMR90 cells were treated with 0, 0.5, 1, or 4 μM of BPDE and trypsinized after 30 minutes. (B) IMR90 cells were incubated in the presence or absence of suramin (0.15 mM) for 1 hour before being irradiated with 0 or 20 J/m^2 of UVC. (C) IMR90 cells were treated with 0.7 M NaCl, 1 mM H2O2, 0.4 M Sorbitol or PBS (control) for 45 minutes before being lysed.
(§1) Cell culture and treatment. Normal human fibroblast IMR90 was purchased from American Type Culture Collection (Manassas, Va.). Cells were routinely cultured in Dulbecco's Modified Eagle's Medium (DMEM) containing 10% fetal bovine serum, 2 mM L-glutamine, 4.5 g/liter glucose, 100 units penicillin and 100 μg streptomycin at 37° C. under an atmosphere of 5% CO2. For UV irradiation, cells were washed twice with phosphate-buffered saline (PBS) and then irradiated with appropriate doses of UVC (254 nm). Fresh complete medium was added back and cells were lysed at appropriate times. For treatment with BPDE, cells were washed with PBS twice and fresh DMEM was added. BPDE was dissolved in anhydrous dimethyl sulfoxide (DMSO) and appropriate amount of BPDE solution was added to DMEM. Cells were lysed 30 minutes later.
(§2) Western Blotting. Lysates prepared from equal number of cells were mixed with equal volume of 2× sample buffer (50 mM Tris.HCl, pH 6.9, 9% glycerol, 2.3% SDS, 0.1% bromophenol blue and 10% mecaptoethanol) and the proteins were separated on a SDS/polyacrylamide gel. The proteins were then electroblotted onto an Immobilon-P membrane (Millipore, Bedford, Mass.). The blots were blocked for 1 hour at room temperature in Tris-buffered saline (20 mM Tris-HCl, pH 7.6, 137 mM NaCl) containing 0.1% (v/v) Tween 20 and 5% (w/v) non-fat dry milk (blocking solution), and then incubated for 1 hour at room temperature with appropriate antibodies at a concentration of 0.2–1 μg/ml. The blots were washed several times and then incubated with horseradish peroxidase-conjugated goat-anti-mouse IgG (Santa Cruz Biotechnology) that had been diluted 1:3000 with blocking solution. Enhanced chemiluminescence (Amersham, Arlington Heights, Ill.) was used according to the manufacturer's recommendations to detect the signal.
(§3) The data shown in FIG. 4 were obtained as follows. (A) IMR90 cells were treated with 0, 0.5, 1, or 4 μM of BPDE and trypsinized after 30 minutes. Digitonin-solubilized fraction (Cyto) and NP-40-solubilized fraction (Nuc) were separated on SDS-PAGE. SC-54 was used for Western Blotting. In FIG. 4, (B) IMR90 cells were incubated in the presence or absence of suramin (0.15 mM) for 1 hour before being irradiated with 0 or 20 J/m^2 of UVC. After 0, 10, 20 or 30 minutes, whole cell lysates were prepared, separated on SDS-PAGE and transferred to a PVDF membrane. SC-54 or an antibody against human ERK2 was used for Western Blotting. […] In FIG. 4, (C) IMR90 cells were treated with 0.7 M NaCl, 1 mM H2O2, 0.4 M Sorbitol or PBS (control) for 45 minutes before being lysed. Whole cell lysates were separated on SDS-PAGE. SC-54 was used for Western Blotting.

For assay [2], the system named is p46 hyperphosphorylation. The assay is described as follows: p46 (Nogo B) hyperphosphorylation after UVC irradiation in presence of inhibitors, Western blot with SC-54. Format: cell-based, human. As to the method: FIG. 5. […] Then cells were irradiated with 20 J/m^2 of UVC and lysed 30 minutes later. Whole cell lysates were separated on SDS-PAGE. SC-54 was used for Western Blotting.
as §1, §2, §3
It has been shown that elevated cellular stress level can activate p38 MAPK. The role of activation of p38 MAPK in p46 hyperphosphorylation was investigated.

The next assay concerns MEK. The conditions noted are these: cited from earlier work.
The next assay concerns ERK2. Kind of assay: ERK2 phosphorylation after UVC irradiation, Western blot. Format: cell-based, human. The conditions noted are these: preincubation 0.15 mM for 1 hour, 20 J/m^2 UVC, IMR90 cells. As to the method: as §2
The data shown in FIG. 4 were obtained as follows. (A) IMR90 cells were treated with 0, 0.5, 1, or 4 μM of BPDE and trypsinized after 30 minutes. Digitonin-solubilized fraction (Cyto) and NP-40-solubilized fraction (Nuc) were separated on SDS-PAGE. SC-54 was used for Western Blotting. […]
Background: In western blotting, separated proteins are transferred to a membrane and probed.

The next assay concerns p38. The note with it: read-out: IC50 (p38-specific inhibitor); cited from earlier work.

Consider `OO` [H2O2], for which the “hyperphosphorylation of p46 (induction)” value in the assay with p46 hyperphosphorylation [1] (1 mM, IMR90 cells) is given as “rapid hyperphosphorylation”.

Take `OC1c2cc3ccc4cccc5ccc(c2C2OC2C1O)c3c45` (racemic) [BPDE, (±)-r-7,t-8-dihydroxy-t-9,10-epoxy-7,8,9,10-tetrahydrobenzo(a)pyrene]: the “p46 hyperphosphorylation (induction)” value in the assay with p46 hyperphosphorylation [1] (0, 0.5, 1, or 4 μM, 30 minutes, IMR90 cells) is listed as “led to p46 hyperphosphorylation in a dose-dependent manner”.

Broadly, the IC50 is the concentration needed to halve the response being measured. As for `COc1cccc(-c2cc(=O)c3ccccc3o2)c1N` [PD98059], the p46 hyperphosphorylation entry in the assay with p46 hyperphosphorylation [2] (20 uM) is “not affected”. For the same molecule, the IC50 in the assay with MEK was […].

As for `Cc1ccc(C(=O)Nc2ccc(S(=O)(=O)O)c3cc(S(=O)(=O)O)cc(S(=O)(=O)O)c23)cc1NC(=O)c1cccc(NC(=O)Nc2cccc(C(=O)Nc3cc(C(=O)Nc4ccc(S(=O)(=O)O)c5cc(S(=O)(=O)O)cc(S(=O)(=O)O)c45)ccc3C)c2)c1` [suramin], the p46 hyperphosphorylation result with p46 hyperphosphorylation [2] (preincubation 0.15 mM for 1 hour, 20 J/m^2 UVC, IMR90 cells) was “no effect”. The “phosphorylation of ERK2” value in the assay with ERK2 is “completely blocked”.

In the case of `C[C@@]1(CO)[C@H](O)CC[C@@]2(C)[C@H]1CC[C@H]1C[C@@H]3C[C@@]12CC[C@]3(O)CO` [aphidicolin], the p46 phosphorylation state entry in the assay with p46 hyperphosphorylation [1] (cells arrested by the agent) is on record as “hyperphosphorylated”.

With `OC[C@@H](O)[C@@H](O)[C@H](O)[C@@H](O)CO` [sorbitol], the “hyperphosphorylation of p46 (induction)” value in the assay with p46 hyperphosphorylation [1] (0.4 M, IMR90 cells) is reported as “rapid hyperphosphorylation”.

As for `Oc1ccc(-c2nc(-c3ccc(F)cc3)c(-c3ccncc3)[nH]2)cc1` [SB202190], the p46 hyperphosphorylation entry in the assay on p46 hyperphosphorylation [2] (270 nM inhibitor, 30 minutes before 20 J/m^2 UVC, IMR90 cells) is listed as “almost completely abolished”. In the assay with p46 hyperphosphorylation [2] (indicated concentrations for 30 minutes, then 20 J/m^2 UVC, lysed 30 minutes later, IMR90 (FIG. 5)), the “hyperphosphorylation of Nogo” value is reported as “abolished”. Further, the IC50 with p38 was […].

As to `CCc1nc(-c2ccc(OC)cc2)[nH]c1-c1ccncc1` [SB202474], the p46 hyperphosphorylation entry in the assay on p46 hyperphosphorylation [2] (concentration not given, UVC, IMR90 cells) is given as “no effect”.

`[Cl-].[Na+]` [NaCl]: the “hyperphosphorylation of p46 (induction)” value in the assay with p46 hyperphosphorylation [1] (0.7 M, IMR90 cells) is given as “rapid hyperphosphorylation”.
